Measured values as given in publication PMC9394284, “Discovery of Novel Dual Adenosine A2A and A1 Receptor Antagonists with 1H-Pyrazolo[3,4-d]pyrimidin-6-amine Core Scaffold as Anti-Parkinson’s Disease Agents” (Pharmaceuticals, 2022).

Assays:
A2B receptors = biological target: T1, A2B receptors (Homo sapiens, UniProt P29275); assay: radioligand binding to human A2B receptors, HEK-293 membranes, [3H]MRS1754
T1 construct: purchased PerkinElmer ES-013-M
T1 sequence (P29275 1-332): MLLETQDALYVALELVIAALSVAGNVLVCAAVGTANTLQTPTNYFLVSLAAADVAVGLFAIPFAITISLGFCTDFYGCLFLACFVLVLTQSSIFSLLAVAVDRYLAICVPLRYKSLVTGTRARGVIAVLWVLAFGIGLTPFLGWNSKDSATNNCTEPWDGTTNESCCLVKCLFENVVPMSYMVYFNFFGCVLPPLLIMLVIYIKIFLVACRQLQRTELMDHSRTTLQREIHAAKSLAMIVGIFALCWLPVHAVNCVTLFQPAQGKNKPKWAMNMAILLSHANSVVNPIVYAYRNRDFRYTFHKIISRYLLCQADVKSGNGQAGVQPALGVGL
Protocol: The radioligand-binding assays for adenosine receptors were performed at Eurofins Discovery Services (Panlabs, Taiwan). Briefly, stock solutions of the compounds were prepared in DMSO and further diluted with the incubation buffer to the desired concentration. Final DMSO concentrations in the assay were 1.0%. For adenosine A1 screening, a 10 μg aliquots of membrane preparations from human recombinant CHO-K1 cells stably expressing A1 receptors (CHO-K1-hA1AR clone3, EPDST, R200510) were incubated with 1 nM [^3H]DPCPX in incubation buffer (20 mM HEPES, pH 7.4, 10 mM MgCl2, 100 mM NaCl 1.40 nM) for 90 min at 25 °C. Nonspecific binding was estimated in the presence of 100 μM R(-)-PIA. Membranes were filtered and washed 3 times and the filters were counted to determine specifically bound [^3H]DPCPX. Chemical compounds were screened at 10 μM. For A2A screening, membrane preparations from human recombinant HEK-293 cells stably expressing A2A receptors (PerkinElmer, RBHA2AM) were incubated with 0.05 μM [^3H]CGS-21680 in incubation buffer (50 mM Tris-HCl, pH 7.4, 10 mM MgCl2, 1 mM EDTA, 2 U/mL Adenosine Deaminase) for 90 min at 25 °C. Nonspecific binding was estimated in the presence of 50.0 μM NECA. Membranes were filtered and washed 3 times and the filters were counted to determine [^3H]CGS-21680 specifically bound. […] Membranes were filtered and washed 3 times and the filters were counted to determine [^3H]MRS1754 specifically bound. […]
IC50 values were determined by a nonlinear, least-squares regression analysis using MathIQ^TM (ID Business Solutions Ltd., Guildford, UK). Where inhibition constants (Ki) were presented, the Ki values were calculated using Cheng and Prusoff equation [18] using the observed IC50 of the compound, the concentration of radioligand employed in the assay, and the historical values for the KD of the ligand (obtained experimentally at Eurofins Panlabs, Inc.). The Hill coefficient (nH), which defines the slope of the competitive binding curve, was calculated using MathIQ^TM.

hA2A receptors = biological target: T2, hA2A receptors (Homo sapiens, UniProt P29274); assay: radioligand binding to human A2A receptors, HEK-293 membranes
T2 construct: purchased PerkinElmer RBHA2AM
T2 sequence (P29274 whole entry): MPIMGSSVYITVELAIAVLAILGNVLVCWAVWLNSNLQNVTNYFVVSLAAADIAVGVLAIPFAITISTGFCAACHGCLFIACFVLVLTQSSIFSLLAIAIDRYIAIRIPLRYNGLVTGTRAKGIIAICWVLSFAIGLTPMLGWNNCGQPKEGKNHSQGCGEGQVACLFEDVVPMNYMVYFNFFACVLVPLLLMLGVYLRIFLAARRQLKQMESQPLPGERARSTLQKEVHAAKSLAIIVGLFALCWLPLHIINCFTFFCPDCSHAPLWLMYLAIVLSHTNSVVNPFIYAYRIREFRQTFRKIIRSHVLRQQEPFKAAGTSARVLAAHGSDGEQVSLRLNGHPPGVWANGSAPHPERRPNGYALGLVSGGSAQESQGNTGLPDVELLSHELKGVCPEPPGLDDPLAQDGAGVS
Protocol: The binding affinities of synthesized compounds to human A2A receptors (hA2AR) were measured by assessing competitive binding of ligands to radioligand […] using membrane preparations of human recombinant HEK-293 cells expressing human A2A receptors.
The radioligand-binding assays for adenosine receptors were performed at Eurofins Discovery Services (Panlabs, Taiwan). Briefly, stock solutions of the compounds were prepared in DMSO and further diluted with the incubation buffer to the desired concentration. Final DMSO concentrations in the assay were 1.0%. […] Nonspecific binding was estimated in the presence of 100 μM R(-)-PIA. Membranes were filtered and washed 3 times and the filters were counted to determine specifically bound [^3H]DPCPX. Chemical compounds were screened at 10 μM. […] Nonspecific binding was estimated in the presence of 50.0 μM NECA. […] Nonspecific binding was estimated in the presence of 100 μM NECA. Membranes were filtered and washed 3 times and the filters were counted to determine [^3H]MRS1754 specifically bound. […] Nonspecific binding was estimated in the presence of 1.0 μM IB-MECA.
IC50 values were determined by a nonlinear, least-squares regression analysis using MathIQ^TM (ID Business Solutions Ltd., Guildford, UK). […] The Hill coefficient (nH), which defines the slope of the competitive binding curve, was calculated using MathIQ^TM.

[1] = metabolic stability in cryopreserved dog hepatocytes; conditions: dog hepatocytes; 1 μM 11o; little/no compound depletion
Protocol: (§1) Metabolic stability of 11o was determined in cryopreserved hepatocytes from mice, rats, dogs, monkeys and human according to the SOPs of Frontage Laboratories Inc. Briefly, cryopreserved hepatocytes for pre-clinical animals and for human (BioIVT, Westbury, NY, USA) were thawed in a 37 °C water bath with gentle shaking until ice had almost melted. The suspensions were immediately transferred to a centrifuge tube (50 mL) containing pre-warmed thawing media at 37 °C with gentle handshaking to prevent the cells from settling. Cell suspensions were centrifuged at 50× g and 4 °C for 5 min. The supernatant was discarded and the pellets were resuspended in prewarmed incubation media (5 mL) at 37 °C. The percentage of viable cells in the suspension was determined by Trypan blue staining method to ensure viability of ≥70 %. […] The samples were centrifuged and aliquots of the supernatant were analyzed for parent compounds by LC/MS/MS using suitable multiple reaction monitoring (MRM) transitions. […] The disappearance of 11o and midazolam was monitored by LC/MS/MS (MRM) analysis of the hepatocyte extracts at each time point. The peak area ratio of the analyte to internal standard was obtained for each sample and the rate of disappearance of 11o was assessed by comparing the peak area ratios at various time points to the peak area ratio obtained at t = 0. The t1/2 is obtained (using the linear portion of semi-log plot of the area ratio vs. time) and the CLint values determined using well-stirred model.

[2] = metabolic stability in cryopreserved rat hepatocytes
Protocol: as §1

[3] = average of duplicate experiments
[4] = Sprague Dawley, rat, cryopreserved hepatocytes in suspension

Cc1cc(Cn2ncc3c(-c4cccc(C#N)c4F)nc(N)nc32)ccc1N [11o, 3-(6-Amino-1-(4-amino-3-methylbenzyl)-1H-pyrazolo[3,4-d]pyrimidin-4-yl)-2-fluorobenzonitrile]
nH (Hill coefficient), A2B (A2B receptors): 0.98
IC50 (A2B receptors; [3]): 1220 nM
Ki (A2B receptors; [3]): 400 nM
nH (Hill coefficient), A2A (hA2A receptors): 0.79
IC50 (hA2A receptors; [3]): 24 nM
Ki (hA2A receptors; [3]): 13.3 nM
stability in dog hepatocytes (in words) [1]: stable in dog hepatocytes
CLint scaled at 1 μM [2, 4]: 69.2 mL/min/kg
half-life at 1 μM [2, 4]: 46.9 min
hepatocyte CLint at 1 μM [2, 4]: 14.8 µL/min/1e6 cells
Intrinsic Clearance ([2]; rat hepatocytes, 1 μM 11o): 0.0148 mL/min/10^6 Cells
